Data: ChEMBL document CHEMBL1133999, “3-Deoxy-3-substituted-D-myo-inositol imidazolyl ether lipid phosphates and carbonate as inhibitors of the phosphatidylinositol 3-kinase pathway and cancer cell growth” (Bioorg Med Chem Lett, 2001)

Legend:
[1] = Partition coefficient (logP); type: physicochemical; details: octanol/water
HT-29 = experiment: Inhibition of human colon carcinoma (HT-29) cell proliferation; type: functional, cell-based
[2] = target: PI3-kinase p110-alpha/p85-alpha (Homo sapiens, UniProt P42336); experiment: Inhibition of […]/p85 PI3-kinase (phosphatidylinositol 3-kinase); type: protein-complex assay
PI3-kinase p110-alpha/p85-alpha, sequence (P27986 whole entry): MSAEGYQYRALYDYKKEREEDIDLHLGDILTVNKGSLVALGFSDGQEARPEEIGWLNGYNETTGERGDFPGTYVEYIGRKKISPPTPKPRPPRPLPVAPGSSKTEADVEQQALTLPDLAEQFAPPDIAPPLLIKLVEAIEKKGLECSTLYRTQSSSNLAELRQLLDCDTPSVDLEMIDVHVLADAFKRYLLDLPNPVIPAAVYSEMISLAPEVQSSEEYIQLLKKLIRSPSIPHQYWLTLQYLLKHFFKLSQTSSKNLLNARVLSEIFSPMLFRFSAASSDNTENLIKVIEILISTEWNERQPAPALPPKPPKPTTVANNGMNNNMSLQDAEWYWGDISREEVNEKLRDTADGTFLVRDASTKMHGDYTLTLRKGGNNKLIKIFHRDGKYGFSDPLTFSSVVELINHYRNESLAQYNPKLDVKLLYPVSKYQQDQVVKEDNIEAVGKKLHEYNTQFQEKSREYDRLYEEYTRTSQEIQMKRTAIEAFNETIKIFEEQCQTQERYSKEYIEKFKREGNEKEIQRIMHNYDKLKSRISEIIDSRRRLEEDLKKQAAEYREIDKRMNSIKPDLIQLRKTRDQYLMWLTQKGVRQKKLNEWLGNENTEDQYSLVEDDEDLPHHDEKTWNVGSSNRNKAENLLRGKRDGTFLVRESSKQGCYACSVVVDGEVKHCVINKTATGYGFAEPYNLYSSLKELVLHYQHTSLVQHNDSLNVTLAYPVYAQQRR
PI3-kinase p110-alpha/p85-alpha, sequence (P42336 whole entry): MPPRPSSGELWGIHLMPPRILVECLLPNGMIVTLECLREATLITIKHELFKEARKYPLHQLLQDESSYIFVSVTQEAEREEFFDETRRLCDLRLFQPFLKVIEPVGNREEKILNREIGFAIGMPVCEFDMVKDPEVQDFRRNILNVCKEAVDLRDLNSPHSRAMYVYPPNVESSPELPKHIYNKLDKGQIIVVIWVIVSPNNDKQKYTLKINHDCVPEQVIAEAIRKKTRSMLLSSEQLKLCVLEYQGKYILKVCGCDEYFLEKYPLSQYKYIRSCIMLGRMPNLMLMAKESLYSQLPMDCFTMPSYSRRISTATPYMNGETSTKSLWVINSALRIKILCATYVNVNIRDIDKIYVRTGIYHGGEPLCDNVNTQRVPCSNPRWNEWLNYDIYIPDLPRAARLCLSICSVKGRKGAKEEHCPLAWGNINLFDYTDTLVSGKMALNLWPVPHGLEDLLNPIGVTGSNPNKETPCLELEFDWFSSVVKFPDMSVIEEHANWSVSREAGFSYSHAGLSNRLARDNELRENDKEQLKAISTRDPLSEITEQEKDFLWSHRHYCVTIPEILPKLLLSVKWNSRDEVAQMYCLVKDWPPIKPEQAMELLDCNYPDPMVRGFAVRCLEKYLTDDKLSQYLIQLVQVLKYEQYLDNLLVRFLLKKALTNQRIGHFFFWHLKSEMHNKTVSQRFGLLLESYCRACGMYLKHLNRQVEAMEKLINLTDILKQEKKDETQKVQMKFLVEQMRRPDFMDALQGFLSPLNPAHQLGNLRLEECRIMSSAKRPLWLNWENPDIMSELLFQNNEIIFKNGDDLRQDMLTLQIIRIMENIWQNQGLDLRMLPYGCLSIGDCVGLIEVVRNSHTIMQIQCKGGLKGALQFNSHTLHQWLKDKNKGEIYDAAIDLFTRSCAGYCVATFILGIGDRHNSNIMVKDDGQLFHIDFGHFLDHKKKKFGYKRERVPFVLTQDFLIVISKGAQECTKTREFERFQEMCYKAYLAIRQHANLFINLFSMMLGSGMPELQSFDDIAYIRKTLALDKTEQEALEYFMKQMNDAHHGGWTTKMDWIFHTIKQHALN

MCF7 = experiment: Inhibition of MCF-7 (breast) cancer cell proliferation; type: functional, cell-based; details: Homo sapiens
NIH3T3 = experiment: Inhibition of NIH3T3 cell proliferation; type: functional, cell-based; details: Mus musculus
[3] = target: Serine/threonine-protein kinase AKT (Homo sapiens, UniProt P31751+Q9Y243+P31749); experiment: Inhibition of Akt (proto-oncogenic serine/threonine) kinase; type: protein assay

| logP [1] | IC50 (HT-29) [µM] | IC50 [2] [µM] | IC50 (MCF7) [µM] | IC50 [3] [µM] | Structure (SMILES) | IC50 (NIH3T3) [µM] |
| --- | --- | --- | --- | --- | --- | --- |
| 3.22 | 6.5 | 7.9 | 2 | 20.5 | CCCCCCCCCCCCCCCCCCOC[C@H](COP(=O)(O)OC1[C@@H](O)[C@@H](O)[C@H](O)[C@H](CO)[C@H]1O)n1ccnc1 (single isomer, unassigned) | 8.2 |
| – | 15 | 14.5 | 6 | 37.5 | CCCCCCCCCCCCCCCCCCOC[C@H](COP(=O)(O)OC1[C@H](O)C[C@@H](O)[C@H](O)[C@@H]1O)n1ccnc1 (single isomer, unassigned) | 6.5 |
| – | 4.5 | 31 | 5 | 7.8 | CCCCCCCCCCCCCCCCCCOC[C@H](COP(=O)(O)OC1[C@@H](O)[C@@H](O)[C@H](O)[C@H](CO)[C@H]1O)OC (single isomer, unassigned) | 2 |
| 4.44 | – | 14.8 | – | – | CCCCCCCCCCCCCCCCCCOC[C@H](COP(=O)(O)OC1[C@H](O)C[C@@H](O)[C@H](O)[C@@H]1O)OC (single isomer, unassigned) | 4.5 |
| – | 10 | 83 | 1.25 | 5 | CCCCCCCCCCCCCCCCCCOC[C@H](COC(=O)OC1[C@@H](O)[C@@H](O)[C@H](O)[C@H](CO)[C@H]1O)OC (single isomer, unassigned) | 2 |
| – | 15 | 49.5 | 20 | 15 | CCCCCCCCCCCCCCCCCCOC[C@H](COC(=O)OC1[C@@H](O)[C@@H](O)[C@H](O)[C@H](CO)[C@@H]1O)n1ccnc1 (single isomer, unassigned) | 11.5 |
